Assay results taken from publication PMC9176744 (Science Advances, 2022).
Blank lines part the entries; values can stand above or below the compound they belong to.

Key:
DHS2^A4 = test: DHS enzyme assay, DHS2 with the sotaA4 mutation; settings: for inhibition of DHS2^A4 activity: concentration of up to 1 mM; for inhibition of DHS2^A4: similar IC50 values to DHS2^WT
DHS2^F1 = test: DHS enzyme assay, DHS2 with the sotaF1 mutation; settings: concentration of up to 1 mM
DHS2^A11 = test: DHS enzyme assay, DHS2 with the sotaA11 mutation; settings: for inhibition of DHS2^A11 activity: concentration of up to 1 mM; for change in IC50 versus corresponding WT enzyme: DHS2^A11, the weakest sota allele
DHS1^WT [1] = target: T1, DHS1^WT (Arabidopsis thaliana, UniProt P29976); settings: shown previously; cited from earlier work
T1 sequence (P29976 49-525): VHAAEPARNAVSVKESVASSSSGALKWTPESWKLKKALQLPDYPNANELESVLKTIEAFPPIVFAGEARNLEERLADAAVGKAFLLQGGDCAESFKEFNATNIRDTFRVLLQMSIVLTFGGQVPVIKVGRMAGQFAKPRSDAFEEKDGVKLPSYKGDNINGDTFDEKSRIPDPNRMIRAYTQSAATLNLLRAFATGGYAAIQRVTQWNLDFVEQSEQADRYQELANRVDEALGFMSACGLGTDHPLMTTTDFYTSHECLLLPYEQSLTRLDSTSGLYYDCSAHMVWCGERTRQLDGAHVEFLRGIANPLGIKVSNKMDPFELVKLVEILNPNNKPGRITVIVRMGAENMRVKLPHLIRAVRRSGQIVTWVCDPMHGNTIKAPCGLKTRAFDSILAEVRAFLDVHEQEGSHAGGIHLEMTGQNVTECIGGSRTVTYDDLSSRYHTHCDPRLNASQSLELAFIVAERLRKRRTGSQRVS

DHS2^WT [2] = target: T2, DHS2^WT (Arabidopsis thaliana, UniProt Q00218); settings: shown previously; cited from earlier work
T2 sequence (Q00218 34-507): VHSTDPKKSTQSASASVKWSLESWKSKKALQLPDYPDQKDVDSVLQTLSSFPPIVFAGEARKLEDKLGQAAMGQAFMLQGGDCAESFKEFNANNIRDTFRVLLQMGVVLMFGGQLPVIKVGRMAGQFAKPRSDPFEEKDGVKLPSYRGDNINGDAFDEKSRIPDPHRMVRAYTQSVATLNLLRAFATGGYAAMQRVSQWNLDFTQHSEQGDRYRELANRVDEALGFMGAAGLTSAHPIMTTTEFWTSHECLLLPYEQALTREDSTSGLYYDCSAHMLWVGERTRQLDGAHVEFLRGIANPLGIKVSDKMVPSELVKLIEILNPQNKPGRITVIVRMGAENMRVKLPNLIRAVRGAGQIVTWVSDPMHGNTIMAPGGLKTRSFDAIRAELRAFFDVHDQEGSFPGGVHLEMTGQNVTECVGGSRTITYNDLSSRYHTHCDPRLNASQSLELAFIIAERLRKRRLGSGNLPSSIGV

DHS1^B4 = test: DHS enzyme assay, DHS1 with the sotaB4 mutation; format: biochemical, Arabidopsis thaliana; settings: comparable IC50 values to DHS1^WT
DHS3 (DHS^WT isoform) [3] = settings: shown previously; cited from earlier work
[4] = test system: sota mutants (DHS enzymes); test: DHS enzyme assay, sota mutant enzymes compared with corresponding WT enzymes; format: biochemical, Arabidopsis thaliana; settings: nearly all of the sota mutants; maximum increase
DHS3 (DHS^WT isoform) [5] = test: DHS enzyme assay; format: biochemical, Arabidopsis thaliana; settings: for inhibition of DHS3 WT activity: all DHS^WT isoforms
DHS2^WT [6] = target: T2, DHS2^WT; test: DHS enzyme assay; format: biochemical; settings: for inhibition at 1000 µM: read-out: inhibition of DHS2; for inhibition of DHS2 activity: screening of AAAs and AAA-derived metabolites as potential inhibitors (Fig. 2D); for IC50: recombinant DHS2^WT, varied effector concentrations
DHS1^WT [7] = target: T1, DHS1^WT; test: DHS enzyme assay; format: biochemical; settings: for inhibition of DHS1 activity: screening of AAA-derived metabolites as potential inhibitors (Fig. 2D); for IC50: recombinant DHS1^WT, varied effector concentrations
[8] = test system: Arabidopsis plants (Col-0, sotaB4, sotaA4); test: Plant growth on media containing the effector
[9] = ILA feeding, media with 0, 250, 500 or 1000 μM, 3-week-old plants, fresh weight

inhibition of DHS2^A4 activity (DHS2^A4): not inhibited
inhibition of DHS2^F1 activity (DHS2^F1): not inhibited
inhibition of DHS2^A11 activity (DHS2^A11): not inhibited
SMILES: N[C@@H](Cc1ccc(O)cc1)C(=O)O [Tyr, L-tyrosine]

inhibition of DHS2^A4 (DHS2^A4): still inhibited
inhibition of DHS1^B4 (DHS1^B4): still strongly inhibited
SMILES: O=C(O)/C=C/c1ccc(O)c(O)c1 [caffeate]
inhibition of DHS1 (DHS1^WT [1]): strongly inhibit
inhibition of DHS2 (DHS2^WT [2]): strongly inhibit
inhibition of DHS3 (DHS3 (DHS^WT isoform) [3]): strongly inhibit

inhibition of DHS2^A4 (DHS2^A4): still inhibited
SMILES: O=C(O)C1=C[C@@H](O)[C@@H](O)[C@H](O)C1 [shikimate]
inhibition of DHS2 (DHS2^WT [2]): slightly inhibit

change in IC50 versus corresponding WT enzyme (DHS2^A11): no significant change
increase in IC50 versus corresponding WT enzymes [4]: up to 7 fold
inhibition of DHS3 WT activity (DHS3 (DHS^WT isoform) [5]): effectively inhibited
SMILES: O=C(O)C(=O)Cc1ccc(O)cc1 [HPP, 4-Hydroxyphenylpyruvate]

inhibition at 1000 µM (DHS2^WT [6]): ~30%
SMILES: OCCc1ccc(O)cc1 [Tyrosol]

inhibition of DHS2^A4 activity (DHS2^A4): not inhibited
inhibition of DHS2^F1 activity (DHS2^F1): not inhibited
inhibition of DHS2^A11 activity (DHS2^A11): not inhibited
SMILES: N[C@@H](Cc1c[nH]c2ccccc12)C(=O)O [Trp, tryptophan]
inhibition of DHS2 (DHS2^WT [2]): inhibit

SMILES: NCCc1ccc(O)cc1 [tyramine]
inhibition at 1000 µM (DHS2^WT [6]): ~30%

SMILES: Nc1ccccc1C(=O)[O-].[Na+] [Anthranilate]
inhibition of DHS2 activity (DHS2^WT [6]): slight reduction
inhibition of DHS1 activity (DHS1^WT [7]): did not affect the activity

IC50 (DHS2^WT [6]): 58 µM
inhibition of DHS2 activity (DHS2^WT [6]): inhibit
IC50 (DHS1^WT [7]): 241 µM
inhibition of DHS1 activity (DHS1^WT [7]): inhibit
SMILES: O=C(O)C(=O)Cc1c[nH]c2ccccc12 [IPA, indole-3-pyruvate]
effect on plant growth ([8]; independent of genotypes, even at very low concentration (<10 μM)): impaired plant growth

IC50 (DHS2^WT [6]): 75 to 250 µM
inhibition of DHS2 activity (DHS2^WT [6]): effectively inhibited
IC50 (DHS1^WT [7]): 75 to 250 µM
inhibition of DHS1 activity (DHS1^WT [7]): effectively inhibited
change in IC50 versus corresponding WT enzyme (DHS2^A11): no significant change
increase in IC50 versus corresponding WT enzymes [4]: ≤ 12 fold
inhibition of DHS3 WT activity (DHS3 (DHS^WT isoform) [5]): effectively inhibited
IC50 (DHS3 (DHS^WT isoform) [5]; recombinant DHS3 WT, varied effector concentrations): 75 to 250 µM
SMILES: O=C(O)Cc1cc(O)ccc1O [HGA, homogentisate]

inhibition of DHS2^A4 (DHS2^A4): still inhibited
SMILES: N[C@@H](CC1(C(=O)O)C=CC(O)C=C1)C(=O)O (stereo partly shown) [arogenate]
inhibition of DHS2 (DHS2^WT [2]): slightly inhibit

inhibition of DHS1 activity (DHS1^WT [7]): neither
SMILES: O=C(O)Cc1ccc(O)cc1 [4-hydroxyphenylacetate]

inhibition of DHS2 activity (DHS2^WT [6]): reduced the activity
inhibition of DHS1 activity (DHS1^WT [7]): reduced the activity
SMILES: O=C(O)C(O)Cc1c[nH]c2ccccc12 (stereo not shown) [ILA, Indole-3-lactate]
effect on growth of Col-0 WT plants [8, 9]: growth inhibition
growth inhibition in sotaB4 mutant plants versus Col-0 [8, 9]: significantly weakened

inhibition of DHS2^A4 (DHS2^A4): still inhibited
SMILES: O=C(O)C(=O)CC1(C(=O)O)C=CC(O)C=C1 (stereo not shown) [prephenate]
inhibition of DHS2 (DHS2^WT [2]): slightly inhibit

SMILES: NCCc1c[nH]c2ccccc12 [tryptamine]
inhibition of DHS2 activity (DHS2^WT [6]): slight reduction
inhibition of DHS1 activity (DHS1^WT [7]): did not affect the activity

inhibition of DHS1 activity (DHS1^WT [7]): did not affect the activity
SMILES: c1ccc2[nH]ccc2c1 [indole]

inhibition of DHS2^A4 (DHS2^A4): still inhibited
inhibition of DHS1^B4 (DHS1^B4): still strongly inhibited
SMILES: C=C(O[C@@H]1C=C(C(=O)O)C=C[C@H]1O)C(=O)O [chorismate]
inhibition of DHS1 (DHS1^WT [1]): strongly inhibit
inhibition of DHS2 (DHS2^WT [2]): strongly inhibit
inhibition of DHS3 (DHS3 (DHS^WT isoform) [3]): strongly inhibit

inhibition of DHS1 activity (DHS1^WT [7]): neither
SMILES: O=C(O)C(=O)Cc1ccccc1 [PPY, phenylpyruvate]
